Data set [1] concerns voltage-gated Na+ channels. It counts as cell-based, human.
Data set [2] relates to NANOG+ undifferentiated cells. The data set is described as follows: NANOG immunostaining of D14 cells. The format is cell-based, human. The note with it: D14, with quercetin treatment. On the procedure: hiPSC derived dopaminergic neurons were washed with phosphate-buffered saline (PBS) (with Ca^2+ and Mg^2+) and fixed with 4% formaldehyde in PBS (pH 7.4) for 10 mins. Cells were incubated for 1 hr in blocking solution (0.3% Triton X-100 and 1% horse serum in PBS) at room temperature. Cells were incubated with primary antibodies in PBS containing 0.3% Triton X-100 and 1% horse serum overnight. Cells were then incubated with the proper fluorescence-conjugated secondary antibodies with Hoechst 33342 for nuclei staining at room temperature for 1 hr. Cell images were obtained by confocal microscopy (KEYENCE, Osaka, Japan). Data regarding specific cell populations were determined from microscopic images using ImageJ software (11). To measure apoptotic cells, cells were stained for cleaved caspase 3, an apoptotic marker, and Hoechst 33342, a DNA-binding nuclear dye. After staining with Hoechst 33342, compacted chromatin is brighter than in normal cells, and the condensed nuclei were counted by fluorescence microscopy. Data regarding specific cell populations were determined from microscopic images by ImageJ software.

Data set [3] relates to D9 C4 cells (mostly neuronal precursors). The data set is described as follows: Quercetin treatment of D9 differentiating cells, outcome on D11. It counts as cell-based, human. The note with it: different concentrations (5-100 μM) for 16 hours on D9. The text has this: The most critical issue for hPSC-based cell therapy is to establish safety by removing residual undifferentiated cells with neoplastic potential. Based on the previous finding that BIRC5 (encoding survivin) is highly expressed in hPSCs compared to somatic cells (40), we hypothesized that chemical inhibition of survivin would selectively eliminate remaining undifferentiated hiPSCs. However, since survivin is known to be important for neuronal precursors (41, 42), it is important to test whether this strategy interferes with mDAP generation. Among survivin inhibitors (40), we chose the flavonoid quercetin (3,3′,4′,5,7-pentahydroxyflavone) because this natural compound is present at high concentration in commonly consumed vegetables and fruits (43). We first treated 100,000 undifferentiated C4 cells with 5, 10, 20, 40, and 100 μM quercetin for 2, 6, 16, and 24 hours. After washing with fresh media, cells were further cultured for a total of 48 hours. […] To test whether quercetin affects survival of mDAPs, we treated D9 C4 cells (mostly neuronal precursors) with different concentrations of quercetin for 16 hours and examined outcome on D11.

In data set [4] the test system is undifferentiated C4 cells. The data set is described as follows: OCT4 qRT-PCR assay for undifferentiated cells. It counts as cell-based, human. The note with it: D14, D21 and D28 after quercetin treatment (40 μM at D9 for 16 hours). On the procedure: (§1) For colony forming assay, each cell dilution was cultured for 6 days in E8 medium and pluripotent colonies were identified by AP staining. For the quercetin removal of undifferentiated cells, cells were treated with 40 μM quercetin for 16 hours and cultured in fresh E8 medium. For fluorescence activated cell sorting (FACS), C4 cells were dissociated using TrypLE and filtered through a 70 μm cell strainer. Single cell suspensions were first fixed with 4% formaldehyde for 10 mins and suspended in permeabilization buffer for 15 min on ice. After blocking for 30 min, cells were incubated with primary labeled antibodies (PE conjugated anti SSEA-4, TRA-1-60) for 1 hour on ice in the dark. After washing with PBS with 1% FBS, FACS analysis was performed using a BD Accuri C6 system (BD Bioscience) and data analyses were carried out according to manufacturer's instructions. Fluorochrome matched isotype controls were used and subtracted during analysis. For qRT-PCR assay, total RNA from all dilutions was extracted and subjected to qRT-PCR to determine OCT4 cycle times (Ct) value. OCT4 copy numbers were calculated from the equation curve that was generated from qRT-PCR of purified OCT4 partial sequence. Then, OCT4 copy numbers were plotted against PSC numbers.

Another data set has as its system undifferentiated iPSCs. Description: Residual undifferentiated iPSCs in final cell product (immunostaining and real-time PCR). The format is cell-based, human. The note with it: final cell products at day 28 after quercetin. The text has this:
After treatment with quercetin, the final cell products (at day 28) had no detectable remaining undifferentiated iPSCs (with an upper boundary of the 95% confidence interval of <1 undifferentiated cell per 1 billion day-28 differentiated cells), on the basis of immunostaining and real-time polymerase chain reaction-based assays. Serotonergic neurons, a potential cause of graft-induced dyskinesia (Olanow et al. Ann Neurol 2003; 54:403-14), were not detected in the final product.

Data set [5] has as its system undifferentiated C4 cells (human iPSCs). The data set is described as follows: Quercetin treatment of undifferentiated hiPSCs (Trypan blue, hemocytometer). The format is cell-based. On the procedure:
To test the effect of Quercetin on human iPSC removal, human iPSCs were plated on 6 well plates. Cells were treated with each concentration of Quercetin (5, 10, 20, 40, and 100 μM) for 2, 6, 16, and 24 hours. After each time point, Quercetin containing medium was replaced with fresh medium and cells cultured for 48 hours from the initial Quercetin treatment time. Cells were dissociated using TrypLE and cell viability was measured using Trypan blue exclusion and hemocytometer.
The most critical issue for hPSC-based cell therapy is to establish safety by removing residual undifferentiated cells with neoplastic potential. Based on the previous finding that BIRC5 (encoding survivin) is highly expressed in hPSCs compared to somatic cells (40), we hypothesized that chemical inhibition of survivin would selectively eliminate remaining undifferentiated hiPSCs. However, since survivin is known to be important for neuronal precursors (41, 42), it is important to test whether this strategy interferes with mDAP generation. Among survivin inhibitors (40), we chose the flavonoid quercetin (3,3′,4′,5,7-pentahydroxyflavone) because this natural compound is present at high concentration in commonly consumed vegetables and fruits (43). We first treated 100,000 undifferentiated C4 cells with 5, 10, 20, 40, and 100 μM quercetin for 2, 6, 16, and 24 hours. […]

Data set [6] concerns undifferentiated C4 cells. Description: Colony forming assay (AP staining) of C4 cells diluted among hDFs. It counts as cell-based, human. The method, then:
as §1

Data on two molecules can be found in patent US12584105B2, “Autologous cell replacement therapy for Parkinson's disease” (The McLean Hospital Corporation, priority 2019, dated 2026).

On to `NC1=N[C@H](O)[C@H]2[C@H]3O[C@]4(O)O[C@@H]([C@@H](O)[C@@]2(N1)[C@@H]4O)[C@]3(O)CO` [TTX, tetrodotoxin], for which, in data set [1], the “transient inward currents evoked by voltage pulses from −70 mV to +40 mV” value is reported as “completely blocked”.
Turning to `O=c1c(O)c(-c2ccc(O)c(O)c2)oc2cc(O)cc(O)c12` [quercetin, 3,3′,4′,5,7-pentahydroxyflavone], the “NANOG+ cells” value in data set [2] is reported as “none were detected”. For the same molecule, the “cell viability and cell number at D11” value in data set [3] is “Neither cell viability nor number was affected”. The “calculated number of undifferentiated cells” value in data set [4] is listed as “less than 1 cell per 100,000 cells”. In the data set with undifferentiated iPSCs, the “remaining undifferentiated iPSCs, upper boundary of the 95% confidence interval” value is given as < 1 undifferentiated cell per 1 billion day-28 differentiated cells. The “efficiency of elimination of undifferentiated hiPSCs” value in data set [5] is listed as more than 99.99%. In data set [5] (100,000 undifferentiated C4 cells, >20 μM quercetin for >16 hours, cultured for a total of 48 hours), the viable cells entry is on record as “undetectable”. For the same molecule, the “AP+ colonies” value in data set [6] (40 μM quercetin for 16 hours, up to 10^5 hiPSCs plated, 6 days culture) is “no AP′ colonies detected”. In data set [6] (colony forming assay), the “efficacy of quercetin treatment” value is recorded as more than 99.99%.
